Where a name gives a salt, the structure may show the parent alone.
Tests used:
hMC1R = hMC1R (Homo sapiens (Human), UniProt Q01726); experiment: Transactivation test: melanocortin receptors (pCRE-Luc luciferase reporter), hMC1R; format: cell-based; conditions: HEK293 transfected with pCRE-Luc and hMC1R; products tested alone (agonist), 6 h incubation; % activity vs NDP-MSH 10 nM; IA: inactive
Experimental: (§1) Transactivation Test: Melanocortin Receptors
(§2) HEK293 lines are transfected with the pCRE-Luc and hMC1R, hMC3R, hMC4R or hMC5R vectors. The cells are cultured at 37° C., 5% CO2, in DMEM medium supplemented with 10% of foetal calf serum.
(§3) In the presence of an activator (agonist), the melanocortin receptor will activate the cAMP pathway which, via the CRE-Luc vector, will result in the synthesis of luciferase. After the addition of a lysis buffer containing a luminescent substrate for luciferase, it will be possible to measure the luminescence proportional to the degree of activation or of inhibition of the receptor.
(§4) The products are solubilized at 10 mM in DMSO. They are tested in the form of dose-response at a final DMSO concentration of 0.1%. The range comprising 10 points and one zero begins at 10 μM with 4-fold dilutions. For testing agonists, the products are tested alone. For determining the behaviour of antagonists, the products of interest are tested in the presence of 1 nM NDP-MSH (reference agonist). The cells are seeded at a rate of 5000 cells per well (384 well plate) in serum-free DMEM medium, and incubated overnight at 37° C., 5% CO2.
(§5) The products and the reference ligand (NDP-MSH) are added the following day, and the plates are again incubated for 6 h at 37° C., 5% CO2. After the addition of lysis buffer containing luciferin, the plates are read on a Top-Count instrument. The results are standardized as % activity using the 100% (cells+NDP-MSH at 10 nM) and 0% (cells alone) controls. An EC50 is calculated for each product using the XLFit software. The results are given in nM.

hMC4R = hMC4R (Homo sapiens (Human), UniProt P32245); experiment: Transactivation test: melanocortin receptors (pCRE-Luc luciferase reporter), hMC4R; format: cell-based; conditions: HEK293 transfected with pCRE-Luc and hMC4R; products tested alone (agonist), 6 h incubation; % activity vs NDP-MSH 10 nM; IA: inactive
Chain of hMC4R (P32245 whole entry): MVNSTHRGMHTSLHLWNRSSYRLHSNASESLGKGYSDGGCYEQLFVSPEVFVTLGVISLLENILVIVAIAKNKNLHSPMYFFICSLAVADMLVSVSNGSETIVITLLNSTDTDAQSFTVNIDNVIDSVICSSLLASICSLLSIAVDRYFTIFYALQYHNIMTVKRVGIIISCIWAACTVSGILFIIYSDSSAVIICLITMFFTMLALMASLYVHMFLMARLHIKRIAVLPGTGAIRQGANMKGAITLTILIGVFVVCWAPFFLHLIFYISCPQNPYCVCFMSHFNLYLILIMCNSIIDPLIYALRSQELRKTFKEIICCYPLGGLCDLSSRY
Experimental: as §1, §2, §3, §4, §5

Chain of hMC1R (Q01726 whole entry): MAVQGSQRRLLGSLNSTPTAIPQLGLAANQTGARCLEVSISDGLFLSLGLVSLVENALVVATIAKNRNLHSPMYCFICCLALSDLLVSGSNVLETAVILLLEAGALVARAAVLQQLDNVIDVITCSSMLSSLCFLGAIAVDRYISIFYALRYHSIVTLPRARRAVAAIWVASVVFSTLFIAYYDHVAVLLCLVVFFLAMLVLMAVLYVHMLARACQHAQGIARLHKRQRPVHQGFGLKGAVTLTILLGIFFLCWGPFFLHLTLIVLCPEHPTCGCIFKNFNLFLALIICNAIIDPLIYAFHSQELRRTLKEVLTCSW

Compound | EC50 (hMC1R) [nM] | EC50 (hMC4R) [nM]
CCCC(=O)OC1(c2ccccc2)CN(C(=O)[C@H](Cc2ccc(OC)cc2)NC(=O)[C@H](Cc2c[nH]cn2)NC(=O)c2ccccc2)C1 [Compound 1, 1-[(S)-2-[(S)-2-benzoylamino-3-(1H-imidazol-4-yl)propionylamino]-3-(4-methoxyphenyl)propionyl]-3-phenylazetidin-3-yl ester of butyric acid] | 500 | 
CCCCOC1(c2ccccc2C)CN(C(=O)[C@H](Cc2ccc(OC)cc2)NC(=O)[C@H](Cc2c[nH]cn2)NC(=O)c2ccccc2)C1 [Compound 2, N-[(S)-1-[(S)-2-(3-butoxy-3-o-tolylazetidin-1-yl)-1-(4-methoxybenzyl)-2-oxoethylcarbamoyl]-2-(1H-imidazol-4-yl)ethyl]benzamide] | 30 | 8000
CCCCOC1(c2ccccc2)CN(C(=O)[C@H](Cc2ccc(OC)cc2)NC(=O)[C@H](Cc2c[nH]cn2)NC(=O)c2ccccc2)C1 [Compound 3, N-[(S)-1-[(S)-2-(3-butoxy-3-phenylazetidin-1-yl)-1-(4-methoxybenzyl)-2-oxoethylcarbamoyl]-2-(1H-imidazol-4-yl)ethyl]benzamide] | 60 | 4000
COc1ccc(C[C@H](NC(=O)[C@H](Cc2c[nH]cn2)NC(=O)c2ccccc2)C(=O)N2CC(O)(c3ccccc3C)C2)cc1 [Compound 4, N-[(S)-1-[(S)-2-(3-hydroxy-3-o-tolylazetidin-1-yl)-1-(4-methoxybenzyl)-2-oxoethylcarbamoyl]-2-(1H-imidazol-4-yl)ethyl]benzamide] | 250 | 4000
COc1ccc(C[C@H](NC(=O)[C@H](Cc2c[nH]cn2)NC(=O)c2ccccc2)C(=O)N2CC(OC(C)=O)(c3ccccc3C)C2)cc1 [Compound 5, 1-[(S)-2-[(S)-2-benzoylamino-3-(1H-imidazol-4-yl)propionylamino]-3-(4-methoxyphenyl)propionyl]-3-o-tolylazetidin-3-yl acetate] | 4000 | 8000
CCCC(=O)OC1(c2ccc(F)cc2)CN(C(=O)[C@H](Cc2ccc(OC)cc2)NC(=O)[C@H](Cc2c[nH]cn2)NC(=O)c2ccccc2)C1 [Compound 6, 1-[(S)-2-[(S)-2-benzoylamino-3-(1H-imidazol-4-yl)propionylamino]-3-(4-methoxyphenyl)propionyl]-3-(4-fluorophenyl)azetidin-3-yl ester of butyric acid] | 2000 | 8000
COc1ccc(C[C@H](NC(=O)[C@H](Cc2c[nH]cn2)NC(=O)c2ccccc2)C(=O)N2CC(O)(C3CCCCC3)C2)cc1 [Compound 7, N-[(S)-1-[(S)-2-(3-cyclohexyl-3-hydroxyazetidin-1-yl)-1-(4-methoxybenzyl)-2-oxoethylcarbamoyl]-2-(1H-imidazol-4-yl)ethyl]benzamide] | 500 | 4000
CCCCOC1(c2ccc(F)cc2)CN(C(=O)[C@H](Cc2ccc(OC)cc2)NC(=O)[C@H](Cc2c[nH]cn2)NC(=O)c2ccccc2)C1 [Compound 8, N-[(S)-1-[(S)-2-[3-butoxy-3-(4-fluorophenyl)azetidin-1-yl]-1-(4-methoxybenzyl)-2-oxoethylcarbamoyl]-2-(1H-imidazol-4-yl)ethyl]benzamide] | 120 | 4000
COc1ccc(C[C@H](NC(=O)CCc2c[nH]cn2)C(=O)N2CC(O)(C3CCCCC3)C2)cc1 [Compound 10, N-[(S)-2-(3-cyclohexyl-3-hydroxyazetidin-1-yl)-1-(4-methoxybenzyl)-2-oxoethyl]-3-(1H-imidazol-4-yl)propionamide] | 8000 | 
O=C(CCc1c[nH]cn1)N[C@H](Cc1ccc(Cl)c(Cl)c1)C(=O)N1CC(O)(c2ccccc2)C1 [Compound 12, N-[(R)-1-(3,4-dichlorobenzyl)-2-(3-hydroxy-3-phenylazetidin-1-yl)-2-oxoethyl]-3-(1H-imidazol-4-yl)propionamide] | 8000 | 
CCCOC1(c2ccccc2C)CN(C(=O)[C@H](Cc2ccc(OC)cc2)NC(=O)CCc2c[nH]cn2)C1 [Compound 21, N-[(S)-1-(4-methoxybenzyl)-2-oxo-2-(3-propoxy-3-o-tolylazetidin-1-yl)ethyl]-3-(1H-imidazol-4-yl)propionamide] | 4000 | 
COc1ccc(C[C@@H](NC(=O)CCc2c[nH]cn2)C(=O)N2CC(O)(c3ccccc3C)C2)cc1 [Compound 29, N-[(R)-2-(3-hydroxy-3-o-tolylazetidin-1-yl)-1-(4-methoxybenzyl)-2-oxoethyl]-3-(1H-imidazol-4-yl)propionamide] | 1000 | 
CCCCCC1(c2ccc(F)cc2)CN(C(=O)[C@@H](Cc2ccc(OC)cc2)NC(=O)CCc2c[nH]cn2)C1 [Compound 38, N-[(R)-2-[3-(4-fluorophenyl)-3-pentylazetidin-1-yl]-1-(4-methoxybenzyl)-2-oxoethyl]-3-(1H-imidazol-4-yl)propionamide] | 250 | 
CCCCCC1(c2ccccc2F)CN(C(=O)[C@@H](Cc2ccc(OC)cc2)NC(=O)CCc2c[nH]cn2)C1 [Compound 43, N-[(R)-2-[3-(2-fluorophenyl)-3-pentylazetidin-1-yl]-1-(4-methoxybenzyl)-2-oxoethyl]-3-(1H-imidazol-4-yl)propionamide] | 30 | 
CCCCCC1(c2ccccc2Cl)CN(C(=O)[C@@H](Cc2ccc(OC)cc2)NC(=O)CCc2c[nH]cn2)C1 [Compound 44, N-[(R)-2-[3-(2-chlorophenyl)-3-pentylazetidin-1-yl]-1-(4-methoxybenzyl)-2-oxoethyl]-3-(1H-imidazol-4-yl)propionamide] | 30 | 
CCCCCC1(c2ccccc2)CN(C(=O)[C@@H](Cc2ccc(C(F)(F)F)cc2)NC(=O)CCc2c[nH]cn2)C1 [Compound 51, N-[(R)-2-oxo-2-(3-pentyl-3-phenylazetidin-1-yl)-1-(4-trifluoromethylbenzyl)ethyl]-3-(1H-imidazol-4-yl)propionamide] | 1000 | 
CCCCCC1(c2ccc(Cl)c(Cl)c2)CN(C(=O)[C@@H](Cc2ccc(OC)cc2)NC(=O)CCc2c[nH]cn2)C1 [Compound 54, N-[(R)-2-[3-(3,4-dichlorophenyl)-3-pentylazetidin-1-yl]-1-(4-methoxybenzyl)-2-oxoethyl]-3-(1H-imidazol-4-yl)propionamide] | 250 | 
CCCCOC1(c2ccccc2C)CN(C(=O)C(Cc2ccc(OC)cc2)NC(=O)CC(CCC)c2c[nH]cn2)C1 (stereo not shown) [Compound 62, N-[2-(3-butoxy-3-o-tolylazetidin-1-yl)-1-(4-methoxybenzyl)-2-oxoethyl]-3-(1H-imidazol-4-yl)hexyramide] |  | 500
CCCCOC1(c2ccccc2C)CN(C(=O)C(Cc2ccc(Cl)cc2Cl)NC(=O)CC(CCC)c2c[nH]cn2)C1 (stereo not shown) [Compound 65, N-[2-(3-butoxy-3-o-tolylazetidin-1-yl)-1-(2,4-dichlorobenzyl)-2-oxoethyl]-3-(1H-imidazol-4-yl)hexyramide] |  | 100
CCCCOC1(c2ccccc2C)CN(C(=O)C(Cc2ccc(OC)cc2O)NC(=O)CCc2cnc[nH]2)C1 (stereo not shown) [Compound 70, N-[2-(3-Butoxy-3-o-tolylazetidin-1-yl)-1-(2-hydroxy-4-methoxybenzyl)-2-oxoethyl]-3-(3H-imidazol-4-yl)propionamide trifluoroacetate] | 4000 | 
CCCCOC1(c2ccccc2C)CN(C(=O)[C@@H](Cc2ccc(O)cc2)NC(=O)CCc2cnc[nH]2)C1 [Compound 72, N-[(R)-2-(3-Butoxy-3-o-tolylazetidin-1-yl)-1-(4-hydroxybenzyl)-2-oxoethyl]-3-(3H-imidazol-4-yl)propionamide] | 2000 | 
